Test results taken from publication PMC4919791, “Effect of curcumin analogs onα-synuclein aggregation and cytotoxicity” (Scientific Reports, 2016).

Experiments:
[1] = target: T1, preformed α-Syn amyloid fibrils (Homo sapiens, UniProt P37840); test: TEM of preformed α-Syn fibrils with analogs; format: biochemical; conditions: after 48 h incubation with analog
T1 construct: made in house; host or cells: Escherichia coli BL21
Experimental: (§1) The samples were then washed thrice with autoclaved MQ. The samples were then stained with 10 μl of uranyl formate 1% (w/v) and incubated in dark for 10 min. The EM image of each sample was acquired at 120 kV with magnifications in the range of 26,000X and 43,000X using a transmission electron microscope (TECNAI12 D312 FEI, Netherlands).

α-Syn oligomers = target: T2, α-Syn oligomers (Homo sapiens, UniProt P37840); test: LDH cytotoxicity assay of α-Syn oligomers with C1/C6; format: cell-based; conditions: oligomers incubated 30 minutes with compound; SH-SY5Y cells
T2 construct: made in house; host or cells: Escherichia coli BL21
Excerpt: It has been shown that α-Syn mutants that form oligomers preferentially are more toxic and kill dopaminergic neurons in animal models as compared to fibril forming mutants. Therefore, compounds that effectively reduce the toxicity of oligomers could be beneficial for the treatment of PD. In the present study, we tested the effect of curcumin and its analogs on the toxicity, hydrophobic exposure and morphology of α-Syn oligomers isolated using size exclusion chromatography (SEC). The toxicity of α-Syn oligomers in presence and absence of curcumin/analogs were initially tested using MTT assay. […] To further validate the effectiveness of C6 to reduce the cytotoxicity of α-Syn oligomers, we also performed LDH cytotoxicity assay and Calcein-AM/Ethidium homodimer-1 staining. […] As previously it has been proposed that curcumin reduces the oligomers toxicity by altering their exposed hydrophobic surface, we also measured the hydrophobic surface exposure of preformed α-Syn oligomers incubated with curcumin and its analogs.
10 μM of α-Syn oligomers/fibrils incubated with and without 5 μM curcumin/analogs were added to SH-SY5Y cells (10,000 cells/well) in 96 well plate. […] The percent LDH release was plotted as difference in the absorbance value of 490 nm and 690 nm, considering 100% release for the TritonX-100 treated cells.

α-Syn fibrils [2] = target: T3, α-Syn fibrils (Homo sapiens, UniProt P37840); test: Binding affinity to α-Syn fibrils by curcumin analog fluorescence
T3 construct: made in house; host or cells: Escherichia coli BL21
Experimental: To estimate the comparative binding affinity of curcumin analogs to the α-Syn fibrils and oligomers, curcumin fluorescence assay was performed for each analog. For binding study with fibrils, 10 μM of α-Syn fibrils were incubated in presence of varying concentration of curcumin and its analogs (0.25 μM to 30 μM) for 30 min at RT in dark and then fluorescence spectra were recorded. The normalized fluorescence intensity of different concentrations of curcumin/analogs at their corresponding λmax was plotted to obtain their respective saturation plots (Figs 6A and S7). From the saturation plot, dissociation constant (Kd) was calculated (see method section).
The binding of curcumin/analogs to α-Syn fibrils were determined based on change in fluorescence intensity. For this study, 10 μM α-Syn fibrils were incubated in presence and absence of varying concentration of curcumin/analogs (0.25 μM to 30 μM) for 30 min at RT in dark. Immediately after incubation, fluorescence study was performed (for the excitation and emission ranges for each compounds, see Fig. S1). Experiments were performed using FluoroMax-4 spectrofluorometer (HORIBA JobinYvon) with excitation and emission slit widths of 5 nm. The maximum fluorescence intensity for curcumin/analogs was normalized with respect to that of the lowest concentration of each analog. The normalized fluorescence intensity was plotted against increasing concentration of curcumin/analogs and the dissociation constant was determined using the equation
where, “ΔF” is the change in the fluorescence intensity of curcumin/analogs, “ΔFmax” is the change in the fluorescence intensity at saturation point and “L”is the concentration of curcumin/analogs. The data were analyzed in Graphpad Prism software according to established method as used previously. Similarly, the dissociation constant of curcumin and its analogs with preformed α-Syn oligomers and monomers (obtained from SEC) were also determined.

α-Syn fibrils [3] = target: T3, α-Syn fibrils; test: LDH cytotoxicity assay of α-Syn fibrils formed in presence of curcumin analogs; format: cell-based; conditions: SH-SY5Y cells
Excerpt: The percent LDH release was plotted as difference in the absorbance value of 490 nm and 690 nm, considering 100% release for the TritonX-100 treated cells.

α-Syn = target: T4, α-Syn (Homo sapiens, UniProt P37840); test: TEM of α-Syn aggregates formed in presence of analogs; format: biochemical
T4 construct: made in house; host or cells: Escherichia coli BL21
Experimental: Subsequently, we examined the effect of these analogs on α-Syn oligomerization by time dependent static light scattering experiment. […] After aggregation, TEM study was done to determine the effects of these analogs on the morphology of the resultant aggregates.
as §1

preformed α-Syn fibrils = target: T5, preformed α-Syn fibrils (Homo sapiens, UniProt P37840); test: Calcein-AM/EthD-1 staining, preformed α-Syn fibrils with analogs; format: cell-based; conditions: SH-SY5Y cells
T5 construct: made in house; host or cells: Escherichia coli BL21
Experimental: Previously it has been shown that curcumin decreases the toxicity of α-Syn amyloid fibrils by reducing the exposed hydrophobic surfaces. To delineate whether curcumin analogs can decrease the toxicity of preformed α-Syn fibrils, we performed cell viability assay. For this, 10-days incubated α-Syn solution was centrifuged (fibril formation was confirmed by electron microscopy (EM)) and the pelleted fibrils were then re-dissolved in same volume of 20 mM MES buffer (pH 6.0, 0.01% NaN3). The concentration of the fibrils was determined by subtraction of supernatant concentration from the original concentration of α-Syn kept for fibrillation. […] After incubation, we measured the effect of curcumin analogs on the toxicity of preformed α-Syn amyloid fibrils by MTT reduction assay on SH-SY5Y cells. […]
For this assay, SH-SY5Y cells were seeded in 96 well plate and incubated with identical concentrations of oligomers/fibrils (as used in MTT assay) in absence and presence of curcumin and its analogs for 36 h in 5% CO2 incubator at 37 °C. […] Calcein-AM/Ethidium homodimer-1 signal was then checked and imaged with an inverted fluorescence microscope (Leica DMi8). […] The free calcein emits strong fluorescence signal at ~535 nm, which could be easily observed in the green channel of a microscope. […]

Compound: COc1cc(/C=C/C(=O)CC(=O)/C=C/c2ccc(OCc3ccccc3)c(OC)c2)ccc1OCc1ccccc1 [C6]
- fibril morphology/thickness of preformed α-Syn fibrils (TEM, words) [1]: clustering was more
- LDH release with α-Syn oligomers (α-Syn oligomers): reduced LDH release
- Kd (α-Syn fibrils [2]; 10 μM fibrils, 0.25–30 μM analog, 30 min RT, read-out: dissociation constant (Kd) for α-Syn fibrils): 482 ± 70 nM
- binding with preformed α-Syn fibrils (α-Syn fibrils [2]; compound fluorescence): highest binding
- toxicity of α-Syn fibrils formed in presence of analog, LDH (α-Syn fibrils [3]): less toxicity to cells
- average fibril thickness of fibrils formed in presence of analog (α-Syn): more in comparison to fibrils formed in presence of other analogs
- Calcein-AM/EthD-1 staining with preformed α-Syn fibrils (preformed α-Syn fibrils): less nuclear staining by EthD-1
